Data set [1] addresses Bovine serum albumin (BSA) (Bos taurus, UniProt P02769). Put plainly: BSA labeling (gel fluorescence) after acidification. Type of data set: biochemical. The conditions noted are these: 10 μM BSA, 10 μM compound after acidification at pH 2 for 0-60 min, then pH 8.8, 0° C., 1 hour. As for the experimental part:
To 10 μM solution of BSA in 100 mM Tris-Cl pH 8.8 was added 10 μM of Compound 53 after acidification (100 mM Tris-Cl pH 2) for 0, 1, 10, 30, or 60 minutes. […] The reaction was then allowed to proceed at 0° C. for 1 hour prior to loading onto a gel.
Bovine serum albumin (BSA) was used as a model protein to help assess the ability of Compound 53 to label proteins. BSA is known to bind to small molecules. Compound 53 was subjected to acid for varying times and then added to a solution of BSA at a pH sufficient to minimize background release of the diazonium ion (FIG. 11C). […] It is possible that this indicates a cleavage of the azobenzene linkage; however, the fluorescence could be quenched by reduction at several locations. To assess whether the standard azobenzene reduction is operative with these compounds, the resulting amino phenol may be oxidized and the ortho-iminoquinone may be trapped via established Diels-Alder chemistry. In some embodiments, molecules of the present invention can help distinguish between tyrosine and histidine modifications.

A short description of data set [2]: E/Z photoisomerization and thermal Z to E reversion. Type of data set: physicochemical. The conditions noted are these: MeOD.
Data set [3] is described as follows: In situ real-time pH measurement upon UV irradiation. The conditions noted are these: water, pH adjusted to 9 before irradiation, over several minutes. Format: physicochemical. How it is done: In an effort to examine the rate order for the pH-increasing reaction more carefully, in situ, real-time pH measurements were acquired. Compound A was dissolved in water and the pH of the solution was adjusted to 9 such that it would not form Compound B in the absence of light. […] This spike was not at all consistent with the model of the pH increase being solely linked to the concentration of Compound B being generated.
A sample was irradiated and then the light was turned off once the pH of the solution started to increase noticeably. […] The experiment was repeated with increasing times of irradiation, and a saw-tooth pattern was obtained. The process was not completely reversible due to some degradation to Compound B. Indeed, triazabutadiene Compound A can serve a dual role of being a photo-masked base (see FIG. 4B(i)), and a base whose intrinsic functional group properties are altered photochemically (FIG. 4B(iii)).
Referring to FIG. 5A(iii), Compound C and Compound D were examined in an effort to find a base that was reversibly basic but also more resistant to degradation.

Data set [4] is described as follows: Photo-induced degradation of triazabutadienes under hand-held UV lamp, followed by NMR. Format: physicochemical. As for the experimental part: (i) The reaction was monitored by comparing starting materials (A, C, D, and E) with product (B); (ii) Peak absorption and extinction coefficients for all of the compounds were excitable by the UV source used; (iii) Time-dependent conversion of compounds was measured by NMR integration.
Referring to FIG. 5A, in some embodiments, triazabutadiene molecules of the present invention may readily photoisomerize to a more reactive Z-form. As an example, an aqueous solution of Compound A was irradiated with a simple hand-held UV lamp (“365 nm,” measured at 350 nm). Consumption of Compound A was observed after only a few hours. […] Without wishing to limit the present invention to any theory or mechanism, it was hypothesized that if a two-electron process were happening, then Compound A-Z would be more basic than Compound A-E. A 1.0 N NaOH solution of Compound A was treated with light. […] Benzene diazonium ions also absorb UV light to expel nitrogen and generate a benzene radical. In order to resolve if the initial cleavage undergoes a radical homolytic mechanism versus a two-electron heterolytic mechanism, a trapping experiment using resorcinol was conducted. (Resorcinol was chosen because it can serve a dual role as a radical scavenger and a trap benzene diazonium species that could be formed.) An excess of resorcinol was added to a pH 9 borate-buffered solution of Compound A and the mixture was irradiated with light. The known azobenzene, Sudan Orange G, was formed in a 65% yield (versus 4% for the non-irradiated reaction). Derivatives of Compound A were made to examine the effects of electronic perturbations on the light-induced degradation. […] A buffered borate solution was chosen due to its alkaline nature and lack of complicating signals in the NMR experiment. Compounds C-E all have absorption spectra that are well within the range of the UV lamp (see FIG. 5A(ii)).

Data set [5] in a line: Stability in DMSO with excess acetic acid, with or without light. Type of data set: physicochemical. How it is done: (§1) It is possible that Compound A may be useful as a photo-catalytic base in the context of organic reactions. […] As noted previously, Compound A is quite stable to an excess of acetic acid in DMSO, showing only 12% degradation over 14 hours at room temperature. […] To confirm that this was due to the acid, a solution of Compound A (in pure DMSO) was irradiated. After four hours of constant irradiation in acid-free DMSO, an E:Z ratio of nearly 50:50 was observed.

The next data set is described as follows: Solubility observations. Format: physicochemical. Conditions: organic solvents. As for the experimental part: as §1
As another non-limiting example, an azide (e.g., NHS-azide) to N-heterocyclic carbene (NHC) route may be used to synthesize triazabutadiene molecules (e.g., see FIG. 6C). For example, as shown in Compound 4 of FIG. 6D, a triazabutadiene molecule was synthesized from dimethyl imidazole derived NHC and phenyl azide. […] This change was confirmed to coincide with diazonium formation by trapping the reactive species with resorcinol to provide known diazo dye Sudan Orange G. When the triazabutadiene molecule (Compound 4) was treated with the much less acidic acetic acid, the same product was obtained.
To render the triazabutadiene water-soluble, methyl imidazole was alkylated with propane sultone to provide the Zwitterionic NHC precursor Compound 5a (see FIG. 6E). […] Compound 6a was highly colored, so its pH dependence was studied using UV/vis. The reactions were not only pH-, but also scan-frequency dependent. Upon finding this, the stability of Compound 6a was studied in D2O in the dark using NMR. Even in the dark it was unstable, but not in the diazonium-forming way. Both Compound 6b and a more hindered mesityl (Mes) substituted Compound 6c (see FIG. 6E) were synthesized to stabilize what was initially considered to be a rearrangement pathway that could be blocked by steric repulsion. […] Dissolution in 0.1 N NaOH rendered all compounds stable (e.g., no detectable degradation after 24 hours in the dark).
To further examine the reactivity of this class of compounds, variants Compound 6d and Compound 6e were synthesized (see FIG. 6G). It was hypothesized that the p-methoxy and p-nitro analogs (Compound 6d and Compound 6e, respectively) would display different reactivity profiles. […] After collecting the precipitate and dissolving it in deuterated methanol, no change was observed from a sample of Compound 6e that had never been exposed to a buffered solution. […] It is possible that: 1) that the sodium salt of Compound 6e is much less soluble than the potassium salt; or 2) with different solvating ions present the sulfonate interacts with the electron-poor N2 nitrogen atom of the triazabutadiene to break conjugation and form an insoluble complex (this is backed by a reversible color change of the starting rust-red solid, to the light yellow precipitate). […]

Data set [6] in a line: Resorcinol trapping of diazonium species (Sudan Orange G formation). Type of data set: physicochemical. The conditions noted are these: excess resorcinol, pH 9 borate buffer. The source says:
(§2) Referring to FIG. 5A, in some embodiments, triazabutadiene molecules of the present invention may readily photoisomerize to a more reactive Z-form. As an example, an aqueous solution of Compound A was irradiated with a simple hand-held UV lamp (“365 nm,” measured at 350 nm). Consumption of Compound A was observed after only a few hours. […] Without wishing to limit the present invention to any theory or mechanism, it was hypothesized that if a two-electron process were happening, then Compound A-Z would be more basic than Compound A-E. A 1.0 N NaOH solution of Compound A was treated with light. […] Benzene diazonium ions also absorb UV light to expel nitrogen and generate a benzene radical. In order to resolve if the initial cleavage undergoes a radical homolytic mechanism versus a two-electron heterolytic mechanism, a trapping experiment using resorcinol was conducted. (Resorcinol was chosen because it can serve a dual role as a radical scavenger and a trap benzene diazonium species that could be formed.) An excess of resorcinol was added to a pH 9 borate-buffered solution of Compound A and the mixture was irradiated with light. The known azobenzene, Sudan Orange G, was formed in a 65% yield (versus 4% for the non-irradiated reaction). Derivatives of Compound A were made to examine the effects of electronic perturbations on the light-induced degradation. […]

Data set [7] is described as follows: Stability of non-irradiated (dark) aqueous solutions. Type of data set: physicochemical.
From the text: as §2

For data set [8] the following is noted: not pH dependent in the physiological range; cited from earlier work.

Sequence of Bovine serum albumin (BSA) (P02769 25-607): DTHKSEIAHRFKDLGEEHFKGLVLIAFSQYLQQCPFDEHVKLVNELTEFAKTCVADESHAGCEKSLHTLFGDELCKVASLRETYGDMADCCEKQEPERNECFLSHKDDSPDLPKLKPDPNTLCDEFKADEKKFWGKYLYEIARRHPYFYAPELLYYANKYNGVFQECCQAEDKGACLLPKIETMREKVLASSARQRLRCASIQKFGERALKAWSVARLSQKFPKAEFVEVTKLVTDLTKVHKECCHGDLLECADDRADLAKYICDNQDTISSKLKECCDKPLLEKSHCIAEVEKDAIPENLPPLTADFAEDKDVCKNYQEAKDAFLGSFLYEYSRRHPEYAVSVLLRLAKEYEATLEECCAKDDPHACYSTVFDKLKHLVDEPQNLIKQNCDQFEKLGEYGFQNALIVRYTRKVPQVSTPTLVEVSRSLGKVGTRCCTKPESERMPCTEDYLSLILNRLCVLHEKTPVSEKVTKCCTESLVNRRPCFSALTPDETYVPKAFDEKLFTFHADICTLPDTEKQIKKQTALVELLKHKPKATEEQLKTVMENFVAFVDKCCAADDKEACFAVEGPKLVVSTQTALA

Consider `Cc1cc(C)c(-n2ccn(CCCS(=O)(=O)O)c2=NN=Nc2ccc3c(C(F)(F)F)cc(=O)oc3c2)c(C)c1` [Compound 53], for which, in data set [1], the “Labeling of BSA” value is listed as “labeled in a pH dependent manner”.

Consider `Cc1cc(C)c(-n2ccn(CCCS(=O)(=O)[O-])c2=NN=Nc2ccccc2)c(C)c1.[K+]` [Compound A], for which the “Rate of first-order thermal isomerization” value in [2] was determined as 3e-05 s⁻¹. In addition, in data set [3], the “pH of solution upon exposure to 350 nm light” value is on record as about 10. The “Consumption of starting material under constant irradiation at pH 14” value in [4] (1.0 N NaOH, pH 14, 20 hours constant irradiation) is given as “near complete consumption”. The “Consumption on UV irradiation (time)” value in data set [4] (aqueous solution, hand-held UV lamp (365 nm, measured at 350 nm)) is given as “a few hours”. Besides, the “Degradation with excess acetic acid in DMSO” value in [5] (14 hours, room temperature, no light) was found to be 12%. Moreover, the “Degradation with acetic acid in DMSO upon irradiation” value in [5] (irradiation with light, same time frame (14 hours)) is on record as “completely fell apart”. In addition, in “Solubility observations”, the “Solubility in organic solvents” value was “limited solubility in all but DMSO”. In addition, the “Sudan Orange G yield, irradiated” value in data set [6] (irradiated with light) is reported as 65%. For the same molecule, in data set [6] (non-irradiated reaction), the “Sudan Orange G yield, non-irradiated” value amounted to 4%. The “Stability at pH 14 in the dark” value in data set [7] (1.0 N NaOH solution, pH 14, dark) is on record as “stable for weeks”. Further, in [7] (aqueous solution, similar conditions, no irradiation), the “Stability of non-irradiated reaction” value is on record as “stable for days”.

For `N#[N+]c1ccccc1` [benzenediazonium], the “Half-life of first-order degradation to phenol” value in data set [8] is about 4 h.

These data come from US10472330B2, “Substituted triazenes protected from degradation by carboxylation of N1” (ARIZONA BOARD OF REGENTS ON BEHALF OF THE UNIVERSITY OF …, priority 2015, dated 2019).
